Source: US9995734B2, “Human T cell line assay for evaluating the immunologic identity of glatiramer acetate preparations” (Mylan Inc., priority 2013, dated 2018)

Assays:
[1] = system: Donor 2 Human T-Cell Lines; assay: BrdU uptake proliferation assay, Donor 2 T-cell lines stimulated with GMA; assay type: cell-based; conditions: 100 μg/mL GMA; for BrdU uptake: Day 13
Protocol: Proliferation was evaluated by measuring ATP content using a luminescent method (CellTiter Glo Luminescent Cell Viability Assay, Promega, Madison, Wis., cat. #G7571) or by measuring BrdU uptake by ELISA (Millipore cat. #2752), in both cases following kit instructions. A split well format was used. Cells in each well were resuspended and 65 μl transferred to the wells of each of two new U-bottom 96-well plates, to generate the replicate plates. […] Therefore, all three plates received autologous APC (PBMC) treated with mitomycin C to prevent cell division. […] The latter two plates were incubated for 3 days at 37° C., 6% CO2 before adding CellTiter Glo or BrdU and measuring signal. IL-2 was added at 10 U/mL to the original 96-well plate for expansion on Day 17. For subsequent screenings, mitomycin-treated EBV-transformed autologous B-LCL (2×10^5 to 5×10^5 cells/mL) were used as APC.
PBMC were obtained from a normal, healthy, donor having MHC Class II HLA-DRβ1 04:01, 04:04 (Donor 2). […] Nine presumptive GA-specific human T-cell lines were selected for expansion and further analysis based on an increase in the OD of the GA-stimulated test sample of at least 50% relative to an unstimulated control sample.

[2] = system: Donor 1 Human T-Cell Lines (GMA-stimulated); assay: BrdU uptake proliferation assay, Donor 1 T-cell lines initially stimulated with GMA; assay type: cell-based; conditions: 10 μg/mL GMA
Protocol: Proliferation was evaluated by measuring ATP content using a luminescent method (CellTiter Glo Luminescent Cell Viability Assay, Promega, Madison, Wis., cat. #G7571) or by measuring BrdU uptake by ELISA (Millipore cat. #2752), in both cases following kit instructions. A split well format was used. Cells in each well were resuspended and 65 μl transferred to the wells of each of two new U-bottom 96-well plates, to generate the replicate plates. For the initial screening, the original 96-well plate received mitomycin-treated autologous PBMC as APC plus 10 μg/mL antigen (GA). A first replicate plate received 100 μl., mitomycin-treated PBMC alone (2×10^5), and no antigen, and a second replicate plate received 100 μL mitomycin-treated PBMC plus GA at a final concentration of 10 μg/mL. Therefore, all three plates received autologous APC (PBMC) treated with mitomycin C to prevent cell division. […] The latter two plates were incubated for 3 days at 37° C., 6% CO2 before adding CellTiter Glo or BrdU and measuring signal. IL-2 was added at 10 U/mL to the original 96-well plate for expansion on Day 17. For subsequent screenings, mitomycin-treated EBV-transformed autologous B-LCL (2×10^5 to 5×10^5 cells/mL) were used as APC.
GMA-responsive cell lines were obtained from Donor 1 PBMC as described above (2×10^5 cells/well, i.e., 1×10^6 cells/mL, plated with 10 μg/mL GMA; IL-2 added on Days 3 and 7). In a split well assay begun on Day 12 the cells were stimulated with 10 μg/mL GMA and 1×10^5 mitomycin-treated autologous PBMC as APC. BrdU was added on Day 3, cells were incubated 4.5 hours and fixed, and uptake measured. […] These cell lines each produced an increase in signal of at least 50% relative to (no antigen) control.

With glatiramer acetate [GMA] as the substance, how does the BrdU uptake ([1]; 206-1A6, control 0.220) read?
The BrdU uptake was 0.563 OD450.

And the BrdU uptake ([1]; 206-1A7, control 0.329)?
The BrdU uptake was 0.688 OD450.

What about the BrdU uptake ([1]; 206-1A11, control 0.151) of the same substance?
The BrdU uptake was 0.452 OD450.

What about the BrdU uptake ([1]; 206-1C12, control 0.272) of the same substance?
The BrdU uptake was 0.626 OD450.

What about the BrdU uptake ([1]; 206-1H1, control 0.109) of the same substance?
The BrdU uptake was 0.447 OD450.

And the BrdU uptake ([1]; 206-1H2, control 0.095)?
The BrdU uptake was 0.526 OD450.

What about the BrdU uptake ([1]; 206-2A1, control 0.259) of the same substance?
The BrdU uptake was 0.548 OD450.

And the BrdU uptake ([1]; 206-2A10, control 0.162)?
The BrdU uptake was 0.444 OD450.

What about the BrdU uptake ([1]; 206-2C3, control 0.146) of the same substance?
Its BrdU uptake is 0.358 OD450.

What about the “difference in BrdU uptake from control” value ([1]; nine Donor 2 lines of Table 17) of the same substance?
The value was “greater than two-fold”.

What about the “increase in the OD of the GA-stimulated test sample relative to an unstimulated control sample” value ([1]; nine Donor 2 lines of Table 17) of the same substance?
The value was “at least 50%”.

And the BrdU uptake ([2]; 222-AC11, control 0.680)?
Its BrdU uptake is 1.244 OD450.

And the BrdU uptake ([2]; 222-AF2, control 0.454)?
The BrdU uptake was 1.119 OD450.

And the BrdU uptake ([2]; 222-AF5, control 0.606)?
The BrdU uptake was 1.133 OD450.

And the BrdU uptake ([2]; 222-AG11, control 0.359)?
Its BrdU uptake is 0.875 OD450.

And the BrdU uptake ([2]; 222-AG12, control 0.448)?
The BrdU uptake was 0.949 OD450.

And the BrdU uptake ([2]; 222-BA4, control 0.370)?
The BrdU uptake was 0.603 OD450.

And the BrdU uptake ([2]; 222-BA11, control 0.255)?
The BrdU uptake was 0.783 OD450.

What about the BrdU uptake ([2]; 222-BC11, control 0.499) of the same substance?
The BrdU uptake was 0.921 OD450.

And the “increase in signal relative to (no antigen) control” value ([2]; eight Donor 1 cell lines of Table 4)?
Its value is “at least 50%”.
